According to patent US10071089B2 (Euro-Celtique S.A., priority 2013, dated 2018):

Experiments:
[1] = Body weights over 7 days of dosing; assay type: in vivo, mice; conditions: 10 mg/kg oxycodone or 10 mg/kg oxycodone/5 mg/kg naloxone, oral gavage
Experimental: Animals were administered the dose by oral gavage three times a day (˜4 hours apart) for 7 days and once on the 8th day. Prior to the first dose administration of the day, the dose formulation vials designated for that day were removed from the refrigerator, briefly mixed, and allowed to come to room temperature, where the vials remained throughout the day. After the third dose on day 7, all animals fasted through euthanasia. The dose volume was based on the animal's body weight on Day 1. Dose volume was recorded.
Individual body weights were recorded prior to administration of the first dose on Day 1. The body weight determinations prior to Day 1 dose administration was used to determine the dose administered for all subsequent doses. Subsequent body weights were recorded daily after the 2nd dose of the day on Days 2 through 7.

[2] = system: bacteria of different phyla in the colon; assay: Analysis of the colon contents (bacterial phyla); conditions: phylum levels, FIG. 9; G1 untreated, G3 vehicle, G6, G7
Experimental: (§1) The small intestine, caecum, and colon were cut longitudinally. The contents of each were individually collected into separate containers with a small spatula or similar instrument, taking care to cause as little injury to the tissue as possible. The weight of the contents collected from each portion was recorded. The weights of the small intestine, caecum, and colon following removal of the contents were also recorded. Collected luminal contents samples were then frozen in liquid nitrogen. Luminal contents samples were then placed on dry ice before transfer to a −80° C. freezer.

[3] = system: bacteria of different phyla in the small intestine; assay: Analysis of the contents of the small intestine (bacterial phyla)
Experimental: as §1
The contents of the small intestine of the different groups were obtained as described above.

[4] = system: male C57BL/6 RAG1-/- knockout mice; assay: Charcoal test of intestinal motility (GI transit); assay type: in vivo; conditions: charcoal meal; oral gavage three times a day for 7 days and once on 8th day; Oxy 10 mg/kg, Oxy/Nal 10/5.0 mg/kg
Experimental: Male mice of the strain C57BL/6 RAG −/− (Taconic Model 4175-M, Taconic Laboratories) with an approximal weight at arrival of 20±7 g at an approximal age of 5 to 10 weeks were used in the present study.
The formulations were prepared on Day 0 and used for Day 1 to Day 8 dosing. Sterile water was used as vehicle. Each of the two dose formulations was transferred into eight individual sterile vials through sterilization filters, one designated for each day of dosing. The dose formulations were stored refrigerated and protected from light.
Animals were administered the dose by oral gavage three times a day (˜4 hours apart) for 7 days and once on the 8th day. Prior to the first dose administration of the day, the dose formulation vials designated for that day were removed from the refrigerator, briefly mixed, and allowed to come to room temperature, where the vials remained throughout the day. After the third dose on day 7, all animals fasted through euthanasia. The dose volume was based on the animal's body weight on Day 1. Dose volume was recorded. […]
Thirty minutes after charcoal delivery, animals were euthanized by an overdose of CO2. […] Its full length and the length of charcoal meal traveled were measured in centimeters. Intestinal transit was expressed as the percentage of intestine length containing the meal, i.e. 100×(pylorus to meal front/pylorus to caecum length). […]

[5] = system: bacteria in the mesenteric lymph nodes; assay: Colony forming units in mesenteric lymph nodes (bacterial translocation); assay type: in vivo, mice; conditions: blood and BHI agar; aerobic, anaerobic, CO2; G6 oxycodone, G7 oxycodone/naloxone
Experimental: Following euthanasia, the abdomen was opened. The mesenteric root was presented and the mesenteric net unfolded. The mesenteric lymph nodes (MLNs) were removed and surrounding fat was removed. The MLNs were then weighed into sterilized tubes. Following weighing, the MLNs were frozen in liquid nitrogen. Following freezing, the MLNs were placed on dry ice prior to storage in a −70° C. freezer […].
MLNs were obtained as indicated above and the amount of bacteria in the MLNs was analyzed by determining colony forming units (CFUs) per g MLN in different media and under different conditions as indicated in FIG. 7. Contaminated samples were not taken into account (contaminated samples in the different groups: 1 in G1, 1 in G3, 2 in G6 and 3 in G7). The statistical analysis was performed using one way ANCOVA.

[6] = small intestine, n=7 for G6, n=4 for G7

SMILES: COc1ccc2c3c1O[C@H]1C(=O)CC[C@@]4(O)[C@@H](C2)N(C)CC[C@]314 [oxycodone]
- average percentage body weight loss [1]: 4.17%
- proteobacteria in colon compared to the remaining groups [2]: increase
- bacterioides in small intestine, G6-group compared to G7-group ([3]; phylum levels, FIG. 8): clear decrease
- proteobacteria in small intestine, G6-group compared to G7-group ([3]; phylum levels, FIG. 8): clear increase
- mice with completely (dramatically) altered small intestine microbiome composition [3, 6]: 2/7
- mice with pathogenic populations such as proteobacteria in small intestine [3, 6]: 5/7
- reduction of GI transit compared to vehicle [4]: 67%
- CFUs in MLNs (bacterial translocation into mesenteric lymph nodes) [5]: Increased CFUs
